Values after ≈ are worked out from the molar mass of the structure shown.
Conditions: buffer; pH 7.4; 200.0 µM

Row | SMILES | solubility kinetic [mg/mL]
1 | C/C(CCC1CC(C)OC1=O)=N\NC(N)=S (centres undefined) | > 0.0365
2 | CC1CN(C(C)C(=O)NC(c2ccccc2)c2ccccc2)CC(C)O1 (centres undefined) | > 0.0529
3 | Nc1nc(NCc2ccc(Cl)cc2)nc(NCCO)c1[N+](=O)[O-] | 0.0459 (≈ 135 µM)
4 | CCCNC(=O)N1CCC(Cc2ccccc2)CC1 | > 0.0391
5 | CCN(C(=O)C1=COCCO1)c1nc2c(C)cccc2s1 | 0.0075 (≈ 24.6 µM)
6 | Nc1ccccc1SCC(=O)Nc1ccc2c(c1)OCO2 | > 0.0454
7 | CCN(CC)S(=O)(=O)c1ccc(N2CCOCC2)c(NC(=O)c2ccco2)c1 | > 0.0611
8 | O=C1c2ccccc2NC(c2ccccc2O)N1O (centres undefined) | > 0.0384
9 | O=C(Cc1ccsc1)Nc1ccc2c(c1)OCO2 | > 0.0392
10 | C=CCN1C(=O)CSC1=Nc1ccc(C(=O)O)cc1 | > 0.0414
11 | O=C(COC(=O)c1cc([N+](=O)[O-])ccc1Cl)NC1CCCC1 | > 0.049
12 | CC(C)(C)C(=O)OC/C(N)=N/OC(=O)c1ccccc1 | > 0.0417
13 | O=C1Nc2ccccc2C1=Nc1ccc(Cl)cc1 | 0.0135 (≈ 52.6 µM)
14 | Cc1ccc(C(=O)O)cc1NS(=O)(=O)c1ccc2c(c1)oc(=O)n2C | 0.0448 (≈ 124 µM)
15 | O=C(CCC(=O)c1ccccc1)Nc1ccc(C(=O)O)cc1 | > 0.0446
16 | Cc1cc(NC(=O)CSc2nc3c(C)cccc3cc2C)no1 | < 0.0002
17 | Cn1c(N)c(C(=O)c2ccc(Cl)c(S(=O)(=O)N3CCCCCC3)c2)c(=O)n(C)c1=O | > 0.0682
18 | O=C(O)CCC(=O)Nc1cccc(-c2nc3ccccc3o2)c1 | > 0.0465
19 | COc1ccccc1-n1cccc1C=O | > 0.0302
20 | Cn1nccc1C(=O)N1CCN(c2ccccc2F)CC1 | > 0.0432
21 | Cc1nnc(NC(=O)c2ccc3nccnc3c2)s1 | > 0.0407
22 | OC(c1nc2ccc(F)cc2[nH]1)C(O)c1nc2ccc(F)cc2[nH]1 (centres undefined) | > 0.0495
23 | CC(NC(=O)c1cc2cc(Cl)ccc2oc1=N)c1ccccc1 (centres undefined) | 0.0042 (≈ 12.9 µM)
24 | CC1=N/C(=C/c2ccco2)C(=O)O1 | > 0.0266

Row | SMILES | solubility kinetic [mg/mL]
25 | NC(=O)Cc1nc(-c2ccc(F)cc2)cs1 | > 0.0354
26 | Cc1ccc(OS(=O)(=O)c2ccc(N3C(=O)CCC3=O)cc2)cc1 | 0.0183 (≈ 53 µM)
27 | CCC(Sc1nc(C)cc(C)n1)C(=O)Nc1nccs1 (centres undefined) | 0.0431 (≈ 140 µM)
28 | Cc1cc(/C=C(\C#N)C(=O)O)c(C)n1CCC(C)C | > 0.0391
29 | CC(C)/C=C1\CCc2c([nH]c3ccccc23)C1=O | 0.0015 (≈ 6.27 µM)
30 | CN(CC(=O)Nc1ccccc1Cl)C(=O)c1ccc(Cl)c(S(=O)(=O)N2CCCCCC2)c1 | 0.0216 (≈ 43.3 µM)
31 | Cc1cc(C(=O)CSc2nc(N)cc(=O)[nH]2)ccc1F | 0.0325 (≈ 111 µM)
32 | COc1cccc(C(CNC(=O)c2ccc(Cl)c(S(=O)(=O)N3CCCC3)c2)N(C)C)c1 (centres undefined) | > 0.0699
33 | CCOC(=O)C1CCN(Cc2ccc(Cl)nc2)CC1 | > 0.0424
34 | COCCNC(=S)N1CCN(C/C=C/c2ccccc2)CC1 | > 0.0479
35 | CCC(C)C(NC(N)=O)C(=O)Nc1ccc(C(=O)OC)cc1 (centres undefined) | > 0.0461
36 | COc1ccc(CCC(=O)NCC(=O)OCc2ccccc2)cc1 | > 0.0491
37 | CCOc1ccc(N2CC(C(=O)N3CCc4ccccc43)CC2=O)cc1 (centres undefined) | 0.0045 (≈ 12.8 µM)
38 | CCOc1ccc(OCc2ccc(C(=O)NC(C)(C)C)o2)cc1 | 0.0088 (≈ 27.7 µM)
39 | CC(=O)Nc1nc(C)c(-c2nc3ccc([N+](=O)[O-])cc3[nH]2)s1 | 0.0012 (≈ 3.78 µM)
40 | CCCOc1ccc2ccccc2c1/C=C1\SC(=O)NC1=O | > 0.047
41 | CC(=O)Cc1nsc(Nc2ccc(C)cc2)n1 | 0.0359 (≈ 145 µM)
42 | C=CCNC(=S)N/N=C(\C)c1cccc(NC(C)=O)c1 | > 0.0436
43 | O=C(Nc1ccccc1F)C1CCCC1 | 0.0234 (≈ 113 µM)
44 | CCC1(CC)Cc2ccccc2-c2nc(NCCCO)[nH]c(=O)c21 | 0.042 (≈ 128 µM)
45 | O=C(NC(Cc1ccccc1)C(=O)O)NC12CC3CC(CC(C3)C1)C2 (centres undefined) | > 0.0514
46 | CC(Sc1nnc(Cc2ccccc2)o1)C(=O)NC1(C#N)CCCCC1 (centres undefined) | > 0.0556
47 | Nc1nc(Nc2ccccc2F)nc(NCCO)c1[N+](=O)[O-] | 0.0458 (≈ 149 µM)
48 | CC1CCCC(NC(=O)c2ccc(COc3ccccc3)o2)C1C (centres undefined) | 0.0022 (≈ 6.72 µM)

Row | SMILES | solubility kinetic [mg/mL]
49 | CC(C)(C)NC(=S)N1CCC(C(=O)c2ccc(F)cc2)CC1 | 0.0052 (≈ 16.1 µM)
50 | COc1ccccc1N1CCN(CC(O)c2ccccc2)CC1 (centres undefined) | 0.0376 (≈ 120 µM)
51 | C=C1c2cc3c(cc2NC(=S)N1Cc1ccccc1)OCO3 | 0.0098 (≈ 31.6 µM)
52 | O=C(Nc1cccc2cccnc12)c1ccccc1Br | 0.0004 (≈ 1.22 µM)
53 | Cc1ccccc1CN(C)C(=O)COC(=O)c1ccc2[nH]c(C)c(C)c2c1 | 0.0021 (≈ 5.76 µM)
54 | Cl.O=C(CN1CCCC1)Nc1ccc2c(c1)CCC2 | 0.0413
55 | Cc1ccnc(NC(=O)COc2ccc3c(c2)CCC3)c1 | 0.0016 (≈ 5.67 µM)
56 | NS(=O)(=O)c1ccc(CCNC(=O)c2ccc(Cl)s2)cc1 | 0.0106 (≈ 30.7 µM)
57 | Cc1cc(Nc2ccc(O)cc2)n2c(nc3ccccc32)c1C#N | 0.0009 (≈ 2.86 µM)
58 | CCOC(=O)c1c(NC(=O)c2ccncc2)sc(C)c1C | 0.005 (≈ 16.4 µM)
59 | O=C1C=C(N2CCOCC2)C2(CCCCC2)O1 | > 0.0356
60 | Cc1nc(C)c(-c2csc(Nc3ccc(S(N)(=O)=O)cc3)n2)s1 | 0.0003 (≈ 0.819 µM)
61 | COc1ccccc1CN1CCc2c([nH]c3ccccc23)C1 | 0.0331 (≈ 113 µM)
62 | CC(=O)c1ccc(NC(=S)NCC(c2ccco2)N2CCCC2)cc1 (centres undefined) | 0.0525 (≈ 147 µM)
63 | Cc1ccsc1C(=O)NCCc1ccc(S(N)(=O)=O)cc1 | 0.0328 (≈ 101 µM)
64 | CN(C(=O)COC(=O)c1cccc(Cl)c1)C1CCS(=O)(=O)C1 (centres undefined) | > 0.0519
65 | Cc1ccc(S(=O)(=O)c2ccc([N+](=O)[O-])cn2)cc1 | 0.021 (≈ 75.5 µM)
66 | O=C(/C=C/c1c(Cl)cccc1Cl)NCCCn1ccnc1 | 0.0461 (≈ 142 µM)
67 | CCOC(=O)C1CCN(c2ncnc3c2cnn3C)CC1 | > 0.0434
68 | Cc1ccc(N2C(=O)CC(=O)NC2=O)c(C)c1 | > 0.0348
69 | COc1cc(OC)cc(C(=O)N[C@H](C(=O)OCC(=O)c2c[nH]c3ccccc23)C(C)C)c1 | 0.0038 (≈ 8.67 µM)
70 | CCOc1ccc(C(=O)Nc2cccc3ncccc23)cc1Cl | 0.0011 (≈ 3.37 µM)
71 | N#Cc1ccc(Cn2cc(C=O)c3ccccc32)cc1 | 0.004 (≈ 15.4 µM)
72 | O=C(OCc1nc2ccsc2c(=O)[nH]1)c1ccccc1 | > 0.0429

Row | SMILES | solubility kinetic [mg/mL]
73 | CC(C)c1ccc(NC2CCCN(C(=O)c3ccoc3)C2)cc1 (centres undefined) | > 0.0469
74 | N#CC1=C(N)Oc2cc(N)ccc2C1c1ccc(Cl)cc1 (centres undefined) | 0.0034 (≈ 11.4 µM)
75 | CCN(CC)CC(=O)Nn1c(C)nc2c(ncn2-c2ccccc2)c1=O | > 0.0532
76 | N#Cc1c(NC(=O)CCC(=O)O)sc2c1CCCCC2 | > 0.0439
77 | COc1ccc(NC(=S)N2CCN(c3ccccc3)CC2)c(OC)c1 | 0.0026 (≈ 7.27 µM)
78 | O=C(Nc1ccccc1C(=O)N1CCCCCC1)c1ccc(F)cc1 | > 0.0511
79 | O=C(CSc1nccc(=O)[nH]1)NCc1ccc(Cl)cc1 | > 0.0465
80 | CCOC(=O)c1cncc(O)c1 | > 0.0251
81 | O=C(Nc1ccc(F)c(Cl)c1)c1cncs1 | > 0.0385
82 | Cc1ccc(NS(=O)(=O)c2ccc(C(=O)NCc3ccc(S(N)(=O)=O)cc3)cc2)cc1 | 0.0517 (≈ 113 µM)
83 | Cc1c(C(=O)Nc2nccs2)oc2ccc(Br)cc12 | 0.002 (≈ 5.93 µM)
84 | Cc1ccccc1CNCCCSc1ncccn1.Cl | 0.0352
85 | CN(C)/C=C/C(=O)c1ccc([N+](=O)[O-])c(CS(=O)(=O)c2ccccc2)c1 | > 0.0562
86 | CC(C(=O)Nc1ccc2c(c1)OCO2)N(C)CC(=O)Nc1ccccc1Cl (centres undefined) | > 0.0585
87 | COc1ccc(NC(=O)C2=Cc3cccc(OC)c3OC2)cc1 | 0.0177 (≈ 56.9 µM)
88 | COc1ccccc1CNc1ncccn1.O=C(O)C(=O)O | 0.0344
89 | O=C(O)c1ccc2c(c1)C(=O)N(c1ccc(C(=O)OCC(=O)c3ccccc3)cc1)C2=O | 0.0454 (≈ 106 µM)
90 | CCC(=NCCN1CCOCC1)c1c(O)n(C2CCCCC2)c(=O)[nH]c1=O | 0.0526 (≈ 139 µM)
91 | CN(C(=O)c1ccccc1)C1c2c(ccc3ccccc23)OCC1CO (centres undefined) | < 0.0007
92 | Cn1nccc1C(=O)OCC(=O)Nc1ccccc1 | > 0.0389
93 | CC1(C)CCC(=O)C=C1Nc1ccc(F)c(Cl)c1 | 0.0382 (≈ 143 µM)
94 | O=C(Nc1ccc2c(c1)CCC2)c1cccs1 | 0.0308 (≈ 127 µM)
95 | CCC(C)NC(=O)C1CCN(S(=O)(=O)N2CCOCC2)CC1 (centres undefined) | > 0.05
96 | CCOC(=O)C1CCN(S(=O)(=O)c2cn(C)cn2)CC1 | > 0.0452

Row | SMILES | solubility kinetic [mg/mL]
97 | O=C(CSc1ncnc2c1oc1ccccc12)NC1CCCC1 | 0.0034 (≈ 10.4 µM)
98 | Nc1cc(Cl)ccc1C(=O)OCC(=O)N1CCOCC1 | > 0.0448
99 | CCOc1ccc(NC(=O)NCc2cccn2C)cc1 | 0.0092 (≈ 33.7 µM)
100 | CCn1c(CNC(=O)C23CC4CC(CC(C4)C2)C3)nnc1SC | > 0.0502
101 | COc1ccc(C(=O)NC2CCN(C(=O)Nc3ccc(F)cc3)CC2)cc1 | 0.0009 (≈ 2.42 µM)
102 | NC(=O)c1ccccc1NC(=O)CCn1c(=S)oc2ccccc21 | 0.0432 (≈ 127 µM)
103 | C=C(C)CNC(=O)c1ccc2nc(Cc3ccc(OC)cc3)oc2c1 | 0.0405 (≈ 120 µM)
104 | c1ccc(-c2ccc(C(c3ccccc3)n3ccnc3)cc2)cc1 (centres undefined) | 0.0007 (≈ 2.26 µM)
105 | O=C(c1cccs1)N1CCN=C1SCc1ccc(F)cc1 | < 0.0003
106 | O=C1Cc2cc(S(=O)(=O)N3CCNCC3)ccc2N1 | 0.0391 (≈ 139 µM)
107 | CCOC(=O)c1cc2c(=O)[nH]c(C(Cl)(Cl)Cl)nc2o1 | > 0.0488
108 | O=C(Nc1ccccc1)OC1CCCCc2cccnc21 (centres undefined) | 0.0416 (≈ 147 µM)
109 | Cl.O=C(CCCN1CCOC(c2ccccc2)C1)c1ccc(F)cc1 (centres undefined) | 0.0503
110 | O=C(NC1CCN(C(=S)Nc2ccccc2)CC1)C1CCCCC1 | 0.0021 (≈ 6.08 µM)
111 | CCSc1ccccc1-c1nc(-c2ccncc2)no1 | 0.0051 (≈ 18 µM)
112 | O=C(/C=C/c1ccc([N+](=O)[O-])cc1)NCc1ccc2c(c1)OCO2 | 0.0009 (≈ 2.76 µM)
113 | N#CCCN(Cc1cccnc1)C(=S)NC1CC2C=CC1C2 (centres undefined) | > 0.0469
114 | CC(=O)N1C[C@H](O)C[C@H]1C(=O)O | > 0.026
115 | CO/N=C/C=C1/N(C)c2ccccc2C1(C)C | 0.0194 (≈ 84.2 µM)
116 | CCCC(CCC)C(=O)Nc1cccc(-c2cn3c(n2)SCC3)c1 | 0.004 (≈ 11.6 µM)
117 | Cc1cccc(C)c1NC(=O)CN1C(=O)C2CC=CCC2C1=O (centres undefined) | > 0.0469
118 | O=S(=O)(NCCC1CC1(Cl)Cl)c1ccccc1 (centres undefined) | 0.0398 (≈ 135 µM)
119 | Cc1ccc(C(=O)NC(C)c2ccc3c(c2)OCO3)s1 (centres undefined) | > 0.0434
